The results in this text go back to ChEMBL document CHEMBL4325829, “Design and Synthesis of Tubulin and Histone Deacetylase Inhibitor Based on iso-Combretastatin A-4” (J Med Chem, 2018).

The structures appear in SMILES notation. Converted amounts (≈) assume the structure as drawn. The source made the active and inactive calls. The calls are words filed in the database; no cut-off is given here. Bounds are passed on as bounds.

The test system of one data set is PC-3. As to the kind of experiment: Antiproliferative activity against human PC3 cells after 72 hrs by MTS assay. It is filed as functional. The settings on record: Homo sapiens, PC-3, 72 h.
The target in data set [1] is T1, Histone deacetylase 8 (Homo sapiens) (UniProt Q9BY41).
T1 sequence (whole entry): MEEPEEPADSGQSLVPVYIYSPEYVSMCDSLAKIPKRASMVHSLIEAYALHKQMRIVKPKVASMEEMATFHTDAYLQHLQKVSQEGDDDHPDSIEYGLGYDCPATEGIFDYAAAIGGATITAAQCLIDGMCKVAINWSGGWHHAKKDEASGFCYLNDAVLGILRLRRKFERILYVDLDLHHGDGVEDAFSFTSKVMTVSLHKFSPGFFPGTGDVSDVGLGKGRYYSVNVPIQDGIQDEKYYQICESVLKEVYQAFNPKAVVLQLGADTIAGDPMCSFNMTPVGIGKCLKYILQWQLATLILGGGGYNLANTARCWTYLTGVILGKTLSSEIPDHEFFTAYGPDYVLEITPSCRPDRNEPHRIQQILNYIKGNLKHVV
As to the kind of experiment: Inhibition of human recombinant HDAC8 at 10^-5 M after 60 mins using fluorogenic substrate by fluorimetric assay relative to control.

The next data set relates to K562. As to the kind of experiment: Antiproliferative activity against human K562 cells after 72 hrs by MTS assay. It is filed as functional. The settings on record: Homo sapiens, K562, 72 h.
The subject of another data set is PBL. Description: Cytotoxicity against human PBL cells assessed as cell growth inhibition after 72 hrs by MTS assay. It is filed as ADME, cell-based.
For the next data set, the system named is HCT-116. Description: Antiproliferative activity against human HCT116 cells after 72 hrs by MTS assay. It is filed as functional. The settings on record: Homo sapiens, HCT-116, 72 h.
The nature of data set [2]: Induction of apoptosis in human BL2 cells assessed as late apoptotic cells at 10 nM after 48 hrs by annexin V-FITC/propidium iodide double staining-based flow cytometry (reference value: 2.1%). Type of data set: functional.
The target of data set [3] is Histone deacetylase 7 (Homo sapiens) (UniProt Q8WUI4). Description: Inhibition of human recombinant HDAC7 at 10^-5 M after 45 mins using fluorogenic substrate by fluorimetric assay relative to control.
For data set [4], the target named is Polyamine deacetylase HDAC10 (Homo sapiens) (UniProt Q969S8). As to the kind of experiment: Inhibition of human recombinant HDAC10 at 10^-5 M after 45 mins using fluorogenic substrate by fluorimetric assay relative to control.
The subject of the next data set is U-87 MG. Description: Antiproliferative activity against human U87 cells after 72 hrs by MTS assay. It is filed as functional, U-87MG ATCC. The settings on record: Homo sapiens, U-87 MG, 72 h.
The subject of the next data set is MCF7. Description: Antiproliferative activity against human MCF7 cells after 72 hrs by MTS assay. Type of data set: functional. The settings on record: Homo sapiens, MCF7, 72 h.
The target of data set [5] is Histone deacetylase 2 (Homo sapiens) (UniProt Q92769). Description: Inhibition of human recombinant HDAC2 at 10^-5 M after 15 mins using fluorogenic substrate by fluorimetric assay relative to control.
A further data set deals with T2, Histone deacetylase 11 (Homo sapiens, UniProt Q96DB2).
T2 sequence (Q96DB2 whole entry): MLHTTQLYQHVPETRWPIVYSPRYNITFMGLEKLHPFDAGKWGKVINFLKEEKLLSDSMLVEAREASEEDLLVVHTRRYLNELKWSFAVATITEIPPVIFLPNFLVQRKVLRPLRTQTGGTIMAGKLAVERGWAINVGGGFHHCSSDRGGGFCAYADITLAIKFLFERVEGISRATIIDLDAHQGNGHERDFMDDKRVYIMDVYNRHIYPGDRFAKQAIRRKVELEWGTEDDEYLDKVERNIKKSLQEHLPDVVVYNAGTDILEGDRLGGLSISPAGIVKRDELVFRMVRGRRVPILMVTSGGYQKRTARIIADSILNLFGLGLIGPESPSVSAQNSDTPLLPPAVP
Description: Inhibition of human recombinant HDAC11 after 30 mins using fluorogenic substrate by fluorimetric assay.

In the next data set the test system is HT-29. Description: Antiproliferative activity against human HT-29 cells after 72 hrs by MTS assay. It is filed as functional. The settings on record: Homo sapiens, HT-29, 72 h.
For data set [6], the target named is Histone deacetylase 3 (Homo sapiens) (UniProt O15379). As to the kind of experiment: Inhibition of human recombinant HDAC3 at 10^-5 M after 10 mins using fluorogenic substrate by fluorimetric assay relative to control.
Data set [7] deals with Histone deacetylase 11 (Homo sapiens) (UniProt Q96DB2). As to the kind of experiment: Inhibition of human recombinant HDAC11 at 10^-5 M after 45 mins using fluorogenic substrate by fluorimetric assay relative to control.
Data set [8] in a line: Aqueous solubility of the compound. The settings on record: water. Type of data set: physicochemical.
Data set [9] addresses Histone deacetylase 1 (Homo sapiens) (UniProt Q13547). As to the kind of experiment: Inhibition of human recombinant HDAC1 at 10^-5 M after 15 mins using fluorogenic substrate by fluorimetric assay relative to control.
Data set [10] can be described thus: Induction of apoptosis in human BL2 cells assessed as early apoptotic cells at 10 nM after 48 hrs by annexin V-FITC/propidium iodide double staining-based flow cytometry (reference value: 8.2%). Type of data set: functional.
The subject of a further data set is K-562R. As to the kind of experiment: Antiproliferative activity against human K562R cells after 72 hrs by MTS assay. The settings on record: Homo sapiens, K-562R, 72 h. Type of data set: functional.
Data set [11] can be described thus: Lipophilicity, log P of the compound. It is filed as physicochemical. The settings on record: octanol/water.

Polyamine deacetylase HDAC10 (Homo sapiens), sequence (Q969S8 whole entry): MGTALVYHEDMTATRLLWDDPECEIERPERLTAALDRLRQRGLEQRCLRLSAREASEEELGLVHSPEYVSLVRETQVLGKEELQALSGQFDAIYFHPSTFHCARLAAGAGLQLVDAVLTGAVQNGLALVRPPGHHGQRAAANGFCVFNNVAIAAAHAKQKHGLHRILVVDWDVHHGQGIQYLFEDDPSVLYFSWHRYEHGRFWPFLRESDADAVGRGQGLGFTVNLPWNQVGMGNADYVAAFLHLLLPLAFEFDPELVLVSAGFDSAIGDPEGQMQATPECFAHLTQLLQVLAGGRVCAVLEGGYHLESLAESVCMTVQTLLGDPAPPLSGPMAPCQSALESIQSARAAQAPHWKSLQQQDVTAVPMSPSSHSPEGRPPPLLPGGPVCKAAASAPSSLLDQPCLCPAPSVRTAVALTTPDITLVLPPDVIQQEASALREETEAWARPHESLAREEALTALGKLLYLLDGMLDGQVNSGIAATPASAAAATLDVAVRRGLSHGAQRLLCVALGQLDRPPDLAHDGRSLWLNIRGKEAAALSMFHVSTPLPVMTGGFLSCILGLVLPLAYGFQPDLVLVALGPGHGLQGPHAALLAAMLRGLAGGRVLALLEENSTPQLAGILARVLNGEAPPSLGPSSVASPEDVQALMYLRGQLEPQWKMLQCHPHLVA
Histone deacetylase 3 (Homo sapiens), sequence (O15379 whole entry): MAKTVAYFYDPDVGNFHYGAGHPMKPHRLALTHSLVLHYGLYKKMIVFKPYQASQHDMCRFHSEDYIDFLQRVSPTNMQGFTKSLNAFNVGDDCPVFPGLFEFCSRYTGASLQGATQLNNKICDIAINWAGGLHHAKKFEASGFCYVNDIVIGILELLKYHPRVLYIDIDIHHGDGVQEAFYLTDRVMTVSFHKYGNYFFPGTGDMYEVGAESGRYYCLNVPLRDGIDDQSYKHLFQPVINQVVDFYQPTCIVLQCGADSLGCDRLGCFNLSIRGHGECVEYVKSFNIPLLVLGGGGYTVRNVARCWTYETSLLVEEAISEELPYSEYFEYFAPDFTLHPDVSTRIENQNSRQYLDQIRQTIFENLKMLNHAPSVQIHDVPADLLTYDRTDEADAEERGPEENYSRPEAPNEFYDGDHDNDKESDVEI
Histone deacetylase 1 (Homo sapiens), sequence (Q13547 whole entry): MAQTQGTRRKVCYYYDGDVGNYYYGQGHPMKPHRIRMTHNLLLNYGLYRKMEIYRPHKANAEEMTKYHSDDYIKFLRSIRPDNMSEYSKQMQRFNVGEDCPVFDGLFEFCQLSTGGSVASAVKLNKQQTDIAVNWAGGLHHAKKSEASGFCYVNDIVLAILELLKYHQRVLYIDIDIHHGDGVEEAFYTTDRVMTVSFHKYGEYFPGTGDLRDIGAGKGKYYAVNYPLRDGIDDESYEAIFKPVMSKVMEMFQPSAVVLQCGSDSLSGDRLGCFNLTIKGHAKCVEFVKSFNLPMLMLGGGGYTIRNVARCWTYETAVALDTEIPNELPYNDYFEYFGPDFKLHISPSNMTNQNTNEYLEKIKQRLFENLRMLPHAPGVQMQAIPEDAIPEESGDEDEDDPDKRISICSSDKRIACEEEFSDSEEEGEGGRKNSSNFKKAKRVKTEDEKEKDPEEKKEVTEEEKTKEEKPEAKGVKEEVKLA
Histone deacetylase 7 (Homo sapiens), sequence (Q8WUI4 whole entry): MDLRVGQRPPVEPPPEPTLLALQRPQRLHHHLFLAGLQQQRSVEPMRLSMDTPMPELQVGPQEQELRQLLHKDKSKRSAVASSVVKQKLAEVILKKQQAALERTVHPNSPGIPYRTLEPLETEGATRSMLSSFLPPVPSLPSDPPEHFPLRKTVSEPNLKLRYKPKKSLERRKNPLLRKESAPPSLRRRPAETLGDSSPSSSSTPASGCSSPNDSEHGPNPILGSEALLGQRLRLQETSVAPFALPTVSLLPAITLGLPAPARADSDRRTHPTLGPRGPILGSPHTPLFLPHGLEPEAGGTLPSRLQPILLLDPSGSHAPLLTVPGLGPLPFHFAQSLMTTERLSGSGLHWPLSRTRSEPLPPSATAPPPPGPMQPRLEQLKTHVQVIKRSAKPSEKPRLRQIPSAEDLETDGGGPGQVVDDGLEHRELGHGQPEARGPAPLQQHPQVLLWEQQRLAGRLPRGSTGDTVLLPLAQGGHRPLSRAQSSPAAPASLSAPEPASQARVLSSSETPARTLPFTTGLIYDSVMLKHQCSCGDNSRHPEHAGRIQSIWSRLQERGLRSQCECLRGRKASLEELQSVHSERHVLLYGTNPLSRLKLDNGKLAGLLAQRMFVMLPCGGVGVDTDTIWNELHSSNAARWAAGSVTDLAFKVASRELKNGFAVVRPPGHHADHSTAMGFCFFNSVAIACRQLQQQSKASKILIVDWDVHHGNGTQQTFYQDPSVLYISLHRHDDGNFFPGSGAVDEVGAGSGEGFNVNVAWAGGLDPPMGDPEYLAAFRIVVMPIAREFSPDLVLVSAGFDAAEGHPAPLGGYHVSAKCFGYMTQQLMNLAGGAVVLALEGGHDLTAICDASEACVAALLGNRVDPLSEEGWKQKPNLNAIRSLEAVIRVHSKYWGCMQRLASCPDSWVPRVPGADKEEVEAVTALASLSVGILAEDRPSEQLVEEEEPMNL
Histone deacetylase 2 (Homo sapiens), sequence (Q92769 whole entry): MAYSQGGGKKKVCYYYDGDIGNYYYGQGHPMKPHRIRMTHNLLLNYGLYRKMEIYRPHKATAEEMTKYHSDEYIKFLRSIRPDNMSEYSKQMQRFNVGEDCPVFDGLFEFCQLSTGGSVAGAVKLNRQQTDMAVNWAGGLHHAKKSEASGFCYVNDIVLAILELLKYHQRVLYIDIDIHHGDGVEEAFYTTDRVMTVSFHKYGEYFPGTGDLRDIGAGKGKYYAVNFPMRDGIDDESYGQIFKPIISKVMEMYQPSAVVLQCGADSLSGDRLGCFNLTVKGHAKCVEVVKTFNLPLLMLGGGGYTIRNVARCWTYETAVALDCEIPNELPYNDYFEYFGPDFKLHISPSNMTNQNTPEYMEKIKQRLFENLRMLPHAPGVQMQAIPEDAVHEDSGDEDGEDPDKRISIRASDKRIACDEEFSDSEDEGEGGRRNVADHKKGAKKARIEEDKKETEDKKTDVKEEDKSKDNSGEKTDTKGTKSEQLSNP

For `C=C(c1ccc(OC)c(/C=C/C(=O)NO)c1)c1cc(OC)c(OC)c(OC)c1`, the concentration for 50% growth inhibition (GI50) in the data set with PC-3 worked out at 0.4 nM; in the data set on K562 it was 1.6 nM; with HCT-116, 1.5 nM; in the data set on U-87 MG it was 1.6 nM; in the data set with MCF7, 2 nM; in the data set on HT-29, 2.04 nM. The GI50 in the data set on K-562R was determined as 1.4 nM. For the same molecule, the inhibition is 95% in data set [1]; less than 50% in data set [3]; less than 50% in data set [4]; less than 50% in [5]; less than 50% in data set [6]; 60% in data set [7]. For the same molecule, in [9], the inhibition was less than 50%. In addition, the 50% inhibitory concentration (IC50) in the data set on PBL amounted to 7000 nM; at Histone deacetylase 11 (read-out: IC50) it was 10000 nM. Also, the Activity is reported as 13.7% in data set [2] and 82.1% in data set [10]. The same molecule gave a solubility in [8] of 69.3 µg/mL (≈ 180 µM). Also, the logP in data set [11] (read-out: logP) stood at 2.93.

Regarding `C=C(c1ccc(OC)c(O)c1)c1cc(OC)c(OC)c(OC)c1`, the concentration for 50% growth inhibition (GI50) in the data set on PC-3 is 3 nM; with K562, 5.2 nM; with HCT-116 it was 2 nM; with U-87 MG, 8 nM; in the data set with MCF7 it was 8 nM; in the data set on HT-29, 276 nM. The molecule also gave a GI50 in the data set on K-562R of 2.2 nM. Further, the inhibition result in data set [1], in data set [3], in [4], in [5], in data set [6] and in data set [7] was “inactive” each time. Besides, the inhibition result in data set [9] is “inactive”. Further, the half-maximal inhibitory concentration (IC50) in the data set on PBL is 1700 nM; at Histone deacetylase 11 it was “Not Active”. The Activity in data set [2] amounted to 14.3%; in [10] it was 81.7%. For the same molecule, in data set [8], the concentration in solution (solubility) was 11.6 µg/mL (≈ 36.7 µM). Further, the logP in data set [11] is given as 2.16.
